Laboratory results reported in PMC3100226 (Journal of Pain Research, 2011).

Tests used:
[1] = test system: conscious rat; assay: Safety pharmacology, respiratory, conscious rat; assay type: in vivo; conditions: supra-pharmacological doses
[2] = biological target: CCK1 (Rattus norvegicus, UniProt P30551); assay: Receptor characterization panel: CCK1 binding; conditions: read-out: 10 μM CR4056 (% effect), inhibition of specific binding
[3] = biological target: PI 3-Kβ (Homo sapiens, UniProt P42338); assay: Enzyme characterization panel: PI 3-Kβ; assay type: biochemical; conditions: data not shown
PI 3-Kβ, sequence (P42338 whole entry, species assumed): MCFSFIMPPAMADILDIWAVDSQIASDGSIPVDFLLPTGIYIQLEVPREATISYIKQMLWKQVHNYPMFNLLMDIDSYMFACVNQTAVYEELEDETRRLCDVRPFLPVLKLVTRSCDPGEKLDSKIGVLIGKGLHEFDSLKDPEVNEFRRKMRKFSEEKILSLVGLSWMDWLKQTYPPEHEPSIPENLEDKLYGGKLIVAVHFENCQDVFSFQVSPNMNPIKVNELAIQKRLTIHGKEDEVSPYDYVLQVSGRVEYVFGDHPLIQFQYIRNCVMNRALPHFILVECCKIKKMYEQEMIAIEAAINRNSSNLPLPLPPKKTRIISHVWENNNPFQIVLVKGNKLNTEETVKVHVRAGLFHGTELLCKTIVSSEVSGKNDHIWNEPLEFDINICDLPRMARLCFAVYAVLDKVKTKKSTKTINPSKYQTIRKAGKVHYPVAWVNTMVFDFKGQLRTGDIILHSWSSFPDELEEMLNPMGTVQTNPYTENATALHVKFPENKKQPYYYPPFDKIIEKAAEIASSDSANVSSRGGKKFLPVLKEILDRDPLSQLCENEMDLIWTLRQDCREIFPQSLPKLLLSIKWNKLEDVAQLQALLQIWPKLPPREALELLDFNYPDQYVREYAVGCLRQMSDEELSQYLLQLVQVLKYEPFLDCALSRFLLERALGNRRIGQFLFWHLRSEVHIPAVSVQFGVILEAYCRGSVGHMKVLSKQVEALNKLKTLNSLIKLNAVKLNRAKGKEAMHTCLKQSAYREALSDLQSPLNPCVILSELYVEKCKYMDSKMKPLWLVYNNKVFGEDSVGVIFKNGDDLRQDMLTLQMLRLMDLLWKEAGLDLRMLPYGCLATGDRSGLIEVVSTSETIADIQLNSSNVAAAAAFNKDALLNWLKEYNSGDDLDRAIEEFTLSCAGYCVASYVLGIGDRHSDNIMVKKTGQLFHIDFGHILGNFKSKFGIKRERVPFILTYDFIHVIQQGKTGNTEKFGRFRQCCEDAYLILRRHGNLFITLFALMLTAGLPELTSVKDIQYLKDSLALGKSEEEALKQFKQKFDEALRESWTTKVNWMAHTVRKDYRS
PI 3-Kβ, sequence (P27986 whole entry partner, species assumed): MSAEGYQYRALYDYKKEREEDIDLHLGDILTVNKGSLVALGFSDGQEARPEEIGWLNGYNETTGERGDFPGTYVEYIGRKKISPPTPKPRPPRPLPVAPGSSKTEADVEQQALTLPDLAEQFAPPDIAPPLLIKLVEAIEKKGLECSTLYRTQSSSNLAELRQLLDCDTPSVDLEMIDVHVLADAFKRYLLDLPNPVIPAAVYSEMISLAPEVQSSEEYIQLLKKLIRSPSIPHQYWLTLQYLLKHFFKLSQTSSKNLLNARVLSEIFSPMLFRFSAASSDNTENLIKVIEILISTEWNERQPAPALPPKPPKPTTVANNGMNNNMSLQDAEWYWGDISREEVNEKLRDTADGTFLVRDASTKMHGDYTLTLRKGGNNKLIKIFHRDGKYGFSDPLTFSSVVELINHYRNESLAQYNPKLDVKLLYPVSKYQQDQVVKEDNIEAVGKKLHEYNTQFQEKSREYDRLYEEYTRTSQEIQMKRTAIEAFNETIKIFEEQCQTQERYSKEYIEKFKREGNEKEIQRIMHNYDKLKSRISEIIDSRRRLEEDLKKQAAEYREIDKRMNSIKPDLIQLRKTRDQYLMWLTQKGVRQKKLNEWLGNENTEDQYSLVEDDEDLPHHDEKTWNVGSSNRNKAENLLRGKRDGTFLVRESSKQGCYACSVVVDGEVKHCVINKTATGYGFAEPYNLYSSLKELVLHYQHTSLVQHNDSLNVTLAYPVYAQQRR

[4] = biological target: I1 (Bos taurus, UniProt F1N322); assay: Receptor characterization panel: I1 binding; set-up: species or system bovine; conditions: read-out: 10 μM CR4056 (% effect), inhibition of specific binding
[5] = biological target: T1, MAO-A (Rattus norvegicus, UniProt P21396); assay: MAO-A binding
T1 sequence (P21396 1-526): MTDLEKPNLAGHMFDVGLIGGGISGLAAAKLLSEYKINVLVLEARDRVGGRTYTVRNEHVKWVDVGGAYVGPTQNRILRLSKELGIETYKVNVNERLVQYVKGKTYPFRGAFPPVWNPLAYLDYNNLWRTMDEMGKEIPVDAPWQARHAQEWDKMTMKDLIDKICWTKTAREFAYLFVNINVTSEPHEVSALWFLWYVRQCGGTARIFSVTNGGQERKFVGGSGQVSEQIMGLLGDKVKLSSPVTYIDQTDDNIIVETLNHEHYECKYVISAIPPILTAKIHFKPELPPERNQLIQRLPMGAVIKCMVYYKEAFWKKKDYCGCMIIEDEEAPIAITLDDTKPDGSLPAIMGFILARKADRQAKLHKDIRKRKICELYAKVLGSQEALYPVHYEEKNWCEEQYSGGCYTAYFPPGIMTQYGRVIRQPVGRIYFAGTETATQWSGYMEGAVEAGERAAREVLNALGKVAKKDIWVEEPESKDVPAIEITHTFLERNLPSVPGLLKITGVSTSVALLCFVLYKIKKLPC

[6] = biological target: PI 3-Kγ (Homo sapiens, UniProt P48736); assay: Enzyme characterization panel: PI 3-Kγ; assay type: biochemical; conditions: data not shown
PI 3-Kγ, sequence (P48736 whole entry, species assumed): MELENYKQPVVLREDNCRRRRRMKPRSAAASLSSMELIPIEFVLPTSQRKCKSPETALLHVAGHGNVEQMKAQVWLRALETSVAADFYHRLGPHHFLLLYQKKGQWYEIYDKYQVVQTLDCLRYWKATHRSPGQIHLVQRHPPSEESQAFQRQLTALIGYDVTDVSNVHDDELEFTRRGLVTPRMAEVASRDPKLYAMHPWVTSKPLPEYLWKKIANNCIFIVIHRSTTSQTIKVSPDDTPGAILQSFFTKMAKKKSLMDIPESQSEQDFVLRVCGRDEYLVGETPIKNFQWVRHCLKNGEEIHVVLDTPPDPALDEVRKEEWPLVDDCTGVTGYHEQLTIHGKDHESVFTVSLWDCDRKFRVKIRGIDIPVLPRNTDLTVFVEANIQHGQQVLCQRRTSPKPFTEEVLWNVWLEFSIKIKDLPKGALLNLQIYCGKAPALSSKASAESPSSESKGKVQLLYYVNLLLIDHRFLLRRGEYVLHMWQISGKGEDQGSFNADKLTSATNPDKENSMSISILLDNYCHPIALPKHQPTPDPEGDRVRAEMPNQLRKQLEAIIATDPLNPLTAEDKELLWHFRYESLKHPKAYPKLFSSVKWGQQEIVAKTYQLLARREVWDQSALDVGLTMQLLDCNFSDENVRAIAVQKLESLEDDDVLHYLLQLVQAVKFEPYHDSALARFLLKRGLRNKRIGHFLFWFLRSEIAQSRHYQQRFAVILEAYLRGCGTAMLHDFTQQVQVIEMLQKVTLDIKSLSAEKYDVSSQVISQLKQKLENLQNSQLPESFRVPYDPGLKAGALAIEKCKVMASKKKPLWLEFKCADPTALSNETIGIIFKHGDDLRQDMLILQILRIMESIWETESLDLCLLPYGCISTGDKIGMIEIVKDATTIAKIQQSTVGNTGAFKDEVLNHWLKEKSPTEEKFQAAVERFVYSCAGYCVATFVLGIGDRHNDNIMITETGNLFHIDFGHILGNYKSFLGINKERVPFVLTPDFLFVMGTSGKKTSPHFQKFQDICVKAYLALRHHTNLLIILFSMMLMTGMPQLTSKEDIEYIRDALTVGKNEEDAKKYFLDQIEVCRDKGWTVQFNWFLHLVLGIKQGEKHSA

[7] = biological target: carbonic anhydrase II (Homo sapiens, UniProt P00918); assay: Enzyme characterization panel: carbonic anhydrase II; assay type: biochemical; conditions: data not shown
[8] = test system: conscious dog; assay: Safety pharmacology, cardiovascular, conscious dog; assay type: in vivo; conditions: supra-pharmacological doses
[9] = biological target: Glycine (strychnine-sensitive) (Rattus norvegicus, UniProt P07727); assay: Receptor characterization panel: glycine receptor binding; conditions: read-out: 10 μM CR4056 (% effect), inhibition of specific binding
Glycine (strychnine-sensitive), sequence (P07727 29-457): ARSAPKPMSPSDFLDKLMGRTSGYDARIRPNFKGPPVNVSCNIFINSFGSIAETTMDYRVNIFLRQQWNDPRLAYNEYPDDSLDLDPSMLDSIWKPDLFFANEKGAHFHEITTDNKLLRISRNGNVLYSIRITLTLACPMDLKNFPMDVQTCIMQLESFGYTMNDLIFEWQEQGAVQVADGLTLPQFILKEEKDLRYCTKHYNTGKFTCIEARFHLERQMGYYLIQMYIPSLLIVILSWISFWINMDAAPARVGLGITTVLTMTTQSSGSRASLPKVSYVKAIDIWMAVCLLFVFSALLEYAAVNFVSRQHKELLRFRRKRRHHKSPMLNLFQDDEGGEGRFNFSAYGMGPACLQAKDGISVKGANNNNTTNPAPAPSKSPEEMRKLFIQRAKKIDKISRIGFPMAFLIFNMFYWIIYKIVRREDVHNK
Glycine (strychnine-sensitive), sequence (P20781 23-496 partner): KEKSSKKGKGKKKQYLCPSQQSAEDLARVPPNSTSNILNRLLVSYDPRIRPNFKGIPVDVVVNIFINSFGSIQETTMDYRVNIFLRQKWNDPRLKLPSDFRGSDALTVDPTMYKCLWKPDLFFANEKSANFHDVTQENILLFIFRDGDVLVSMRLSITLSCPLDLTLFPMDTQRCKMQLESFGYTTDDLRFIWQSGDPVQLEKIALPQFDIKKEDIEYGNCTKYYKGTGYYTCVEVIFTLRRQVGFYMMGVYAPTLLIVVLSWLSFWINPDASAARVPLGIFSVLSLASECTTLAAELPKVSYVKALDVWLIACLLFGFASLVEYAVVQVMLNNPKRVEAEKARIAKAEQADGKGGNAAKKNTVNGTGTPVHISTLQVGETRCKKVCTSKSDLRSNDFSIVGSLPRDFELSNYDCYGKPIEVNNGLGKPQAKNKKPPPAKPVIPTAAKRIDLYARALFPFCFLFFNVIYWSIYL

[10] = test system: acid-induced muscle allodynia in rats; assay: Acid-induced muscle allodynia; assay type: in vivo; conditions: rat; for Mechanical threshold (grams) ± SEM, left paw (SX) / Mechanical threshold (grams) ± SEM, right paw (DX): day 6 after treatment, OS
[11] = test system: I2; assay: Receptor characterization panel: I2 binding; conditions: 10 μM; [3H]Idazoxan (+1 μM yohimbine); cerebral cortex/rat
[12] = biological target: human mTOR kinase (Homo sapiens, UniProt P42345); assay: Enzyme characterization panel: mTOR kinase; assay type: biochemical; conditions: data not shown
[13] = biological target: human recombinant MAO-A (Homo sapiens, UniProt P21397); assay: Human recombinant MAO-A functional assay; assay type: biochemical
human recombinant MAO-A, sequence (P21397 whole entry): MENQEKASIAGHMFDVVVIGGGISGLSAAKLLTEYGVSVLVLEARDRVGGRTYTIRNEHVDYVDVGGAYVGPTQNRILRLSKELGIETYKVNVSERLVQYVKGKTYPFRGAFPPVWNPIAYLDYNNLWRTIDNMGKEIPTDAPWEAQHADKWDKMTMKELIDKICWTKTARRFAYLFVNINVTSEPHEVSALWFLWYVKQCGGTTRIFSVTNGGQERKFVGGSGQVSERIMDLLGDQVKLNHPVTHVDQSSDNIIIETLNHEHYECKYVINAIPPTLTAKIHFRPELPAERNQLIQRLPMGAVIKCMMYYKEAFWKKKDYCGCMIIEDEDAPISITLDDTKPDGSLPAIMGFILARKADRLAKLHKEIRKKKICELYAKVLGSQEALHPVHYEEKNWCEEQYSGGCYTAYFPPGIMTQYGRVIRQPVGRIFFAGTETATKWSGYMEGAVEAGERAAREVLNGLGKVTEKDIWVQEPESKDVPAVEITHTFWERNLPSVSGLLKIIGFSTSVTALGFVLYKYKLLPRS

[14] = biological target: PI 3-Kδ (Homo sapiens, UniProt O00329); assay: Enzyme characterization panel: PI 3-Kδ; assay type: biochemical; conditions: data not shown
[15] = biological target: imidazoline I2 receptor; assay: [3H]2-BFI binding to imidazoline I2 receptors in rat whole-brain membranes; conditions: read-out: IC50, nM, [3H]2-BFI binding to the imidazoline I2 receptor; Table S2; rat whole brain membranes, […] [3H]2-BFI, 90 minutes at 25°C; mean ± SEM
[16] = biological target: cycooxygenase-2 (COX2) (Homo sapiens, UniProt P35354); assay: Enzyme characterization panel: COX2; assay type: biochemical; conditions: data not shown
[17] = test system: endogenous norepinephrine (NE) levels; assay: In vivo quantification of endogenous norepinephrine tissue levels; conditions: rat
[18] = test system: capsaicin-induced neurogenic/inflammatory pain in rats; assay: Capsaicin-induced mechanical hyperalgesia; assay type: in vivo; conditions: rat
[19] = test system: locomotor activity of rats; assay: Open field test; assay type: in vivo; conditions: rat; 3–30 mg/kg oral, one hour after administration
[20] = test system: BDZ (central); assay: Receptor characterization panel: central BDZ binding; conditions: 10 μM; [3H]Flunitrazepam; cerebral cortex/rat
[21] = test system: GABA-A (muscimol site); assay: Receptor characterization panel: GABA-A muscimol site binding; conditions: 10 μM; [3H]Muscimol; cerebral cortex/rat
[22] = test system: rats; assay: Diuretic effect in rats; assay type: in vivo, rat; conditions: pharmacological/toxicological dose range
[23] = biological target: T2, CCK2 (Cavia porcellus, UniProt H0VZC5); assay: Receptor characterization panel: CCK2 binding; set-up: species or system guinea pig; conditions: read-out: 10 μM CR4056 (% effect), inhibition of specific binding
T2 sequence (H0VZC5 1-426): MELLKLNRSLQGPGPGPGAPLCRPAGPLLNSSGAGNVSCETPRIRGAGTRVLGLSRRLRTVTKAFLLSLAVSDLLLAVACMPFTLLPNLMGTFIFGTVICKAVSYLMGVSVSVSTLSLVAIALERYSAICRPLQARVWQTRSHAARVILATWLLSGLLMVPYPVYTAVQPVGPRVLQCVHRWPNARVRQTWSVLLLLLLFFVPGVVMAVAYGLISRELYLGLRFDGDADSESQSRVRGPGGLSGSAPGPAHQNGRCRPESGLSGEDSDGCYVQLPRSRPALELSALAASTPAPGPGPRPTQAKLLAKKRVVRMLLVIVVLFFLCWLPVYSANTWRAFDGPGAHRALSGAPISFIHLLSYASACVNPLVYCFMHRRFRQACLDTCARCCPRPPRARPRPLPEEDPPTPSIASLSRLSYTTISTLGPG

[24] = biological target: D2 (Rattus norvegicus, UniProt P61169); assay: Receptor characterization panel: D2 binding; conditions: read-out: 10 μM CR4056 (% effect), inhibition of specific binding
[25] = biological target: 5-HT3 (Rattus norvegicus, UniProt P35563); assay: Receptor characterization panel: 5-HT3 binding; conditions: read-out: 10 μM CR4056 (% effect), inhibition of specific binding
5-HT3, sequence (P35563 24-483): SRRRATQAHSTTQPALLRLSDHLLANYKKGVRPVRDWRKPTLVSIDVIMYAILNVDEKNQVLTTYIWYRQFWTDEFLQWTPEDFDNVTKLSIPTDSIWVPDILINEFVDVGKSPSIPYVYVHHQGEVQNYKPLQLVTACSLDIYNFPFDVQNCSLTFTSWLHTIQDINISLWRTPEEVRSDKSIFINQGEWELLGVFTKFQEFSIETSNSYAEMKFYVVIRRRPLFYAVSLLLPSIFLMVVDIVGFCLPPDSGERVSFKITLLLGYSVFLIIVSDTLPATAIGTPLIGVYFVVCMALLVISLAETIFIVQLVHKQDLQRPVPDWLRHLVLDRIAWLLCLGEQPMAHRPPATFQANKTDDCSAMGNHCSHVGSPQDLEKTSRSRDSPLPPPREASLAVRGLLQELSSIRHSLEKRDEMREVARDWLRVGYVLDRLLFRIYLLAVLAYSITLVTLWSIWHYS

[26] = test system: CFA-induced inflammatory pain in rats; assay: CFA-induced mechanical hyperalgesia; assay type: in vivo; conditions: rat; p.o., 24 hours after CFA
[27] = sub-chronic (four days) oral 20 mg/kg once daily, versus vehicle

Structure (SMILES): c1ccc(-c2ncc3cc(-n4ccnc4)ccc3n2)cc1 [CR4056, 2-phenyl-6-(1H-imidazol-1yl)quinazoline]
- Respiratory effects [1]: tachypnea associated with a respiratory stimulant effect
- inhibition at 10 µM [2]: 21%
- Activity in enzyme characterization panel [3]: inactive
- inhibition at 10 µM [4]: 23%
- IC50 [5]: 358 ± 12 nM
- inhibition at 10 µM ([5]; read-out: 10 μM CR4056 (% effect), inhibition of specific binding, 10 μM, [3H]Ro 41-1049, cerebral cortex/rat): > 90%
- Activity in enzyme characterization panel [6]: inactive
- Activity in enzyme characterization panel [7]: inactive
- Cardiovascular effects [8]: slight hypertensive effects associated with tachycardia
- inhibition at 10 µM [9]: 19%
- Reversal of acidic saline induced allodynia ([10]; 20 and 60 mg/kg oral): completely reversed
- Mechanical threshold (grams) ± SEM, left paw (SX) ([10]; 6 mg/kg): 27.9 ± 1.1 grams
- Mechanical threshold (grams) ± SEM, right paw (DX) ([10]; 6 mg/kg): 28.3 ± 1.9 grams
- Mechanical threshold (grams) ± SEM, left paw (SX) ([10]; 20 mg/kg): 37.1 ± 0.8 grams
- Mechanical threshold (grams) ± SEM, right paw (DX) ([10]; 20 mg/kg): 38.4 ± 1.7 grams
- Mechanical threshold (grams) ± SEM, left paw (SX) ([10]; 60 mg/kg): 39.2 ± 1.6 grams
- Mechanical threshold (grams) ± SEM, right paw (DX) ([10]; 60 mg/kg): 37.4 ± 2.1 grams
- 10 μM CR4056 (% effect), inhibition of specific binding [11]: 66%
- Activity in enzyme characterization panel [12]: inactive
- IC50 [13]: 203 ± 10.3 nM
- Activity in enzyme characterization panel [14]: inactive
- IC50 [15]: 596 ± 76 nM
- Activity in enzyme characterization panel [16]: inactive
- Effect on NE levels, plasma ([17]; oral 20 mg/kg): No effect
- Effect on NE levels, lumbar spinal cord ([17]; single oral dose 20 mg/kg, two hours after dosing): not statistically significant
- Increase of endogenous NE levels, parieto-occipital cortex ([17]; single oral dose 20 mg/kg, two hours after dosing, versus vehicle): 68.2% ± 14.1%
- Increase of NE levels, cerebral cortex [17, 27]: 63.1% ±4.2%
- Increase of NE levels, lumbar spinal cord [17, 27]: 51.3% ± 6.7%
- Reversal of the decrease in withdrawal threshold caused by capsaicin ([18]; 10 mg/kg oral, P < 0.001 versus vehicle): significantly reversed
- Reversal of the effect of capsaicin ([18]; 30 mg/kg oral): completely reversed
- ED50, capsaicin-induced mechanical hyperalgesia, CR4056 alone ([18]; p.o.): 4.13 mg/kg
- ED100, capsaicin-induced mechanical hyperalgesia ([18]; p.o.): 17.9 mg/kg
- Locomotor activity levels in open field test [19]: no statistical differences
- 10 μM CR4056 (% effect), inhibition of specific binding [20]: 21%
- 10 μM CR4056 (% effect), inhibition of specific binding [21]: 26%
- Diuretic effect [22]: dose-dependent diuretic effect
- inhibition at 10 µM [23]: 16%
- inhibition at 10 µM [24]: 25%
- inhibition at 10 µM [25]: 28%
- ED100 (calculated), complete reversion of CFA-induced hyperalgesia [26]: 22.3 mg/kg
